Test results reported in PMC10725991, “Kaempferol is a novel antiviral agent against channel catfish virus infection through blocking viral attachment and penetration in vitro” (Frontiers in Veterinary Science, 2023).

What was measured:
CCV in CCO cells = assay: Virus penetration assay; type: cell-based, Channel catfish virus (CCV, Ictalurid herpesvirus 1); conditions: kaempferol 15 μg/mL, 24 h
Protocol: Confluent CCO cells in 24-well plates were prechilled at 4°C, and then infected with CCV at 4°C for 1 h. After triple washing with pre-cooled PBS, the cells were treated with kaempferol (15 μg/mL) or medium at 28°C for 4 h. The compound dilutions were aspirated and the cells were rinsed with citrate buffer (pH 3.0) in order to inactivate and remove not penetrated virus. After incubated at 28°C for 24 h, the cells were collected for subsequent experiments, including RT-qPCR and viral titer.
Measurement of viral titer was described previously ([5]). In brief, CCO cells were cultured in 96-well plates, and they were infected with 10-fold serially diluted samples that were collected previously. At 72 h post-infection, the cells were directly observed under an inverted microscope. […]
For RT-qPCR, the total RNA was isolated from CCV-infected cells using RnaExTM (Trizol)^a reagent (GENERAY, China), and reversed transcribed applying a HiScript III RT SuperMix with gDNA wiper (Vazyme, China) following the manufacturer’s instructions. Quantitative PCR was performed with a LightCycler 96 Real-Time PCR Detection System (Roche, USA) using ChamQ Universal SYBR qPCR Master Mix (Vazyme, China) with the following cycle conditions: 95°C for 30 s, followed by 40 cycles of 95°C for 10 s and 60°C for 30 s. […] Fold changes of the selected gene vs 18 s (internal reference) were calculated by the 2^−△△Ct method. […]

[1] = test system: CCV ORF 39 and ORF 59 proteins in CCO cells; assay: Western blot of CCV ORF 39 and ORF 59 proteins; type: cell-based, Channel catfish virus (CCV, Ictalurid herpesvirus 1)
Protocol: To test the anti-CCV effect of tested compounds in the preliminary screening, CCO cells were seeded in 24-well plates and cultured to reach approximately 90% confluence in each well at 28°C. Subsequently, the cells were infected with the CCV at 10^3 TCID50/ml at 28°C for 1 h. After that, the cell culture medium was replaced using an isopycnic DMEM medium containing the maximum safe concentration of indicated compounds. CCV-infected cells treated with DMSO served as a negative control, whereas CCV-infected cells treated with acyclovir (2.5 μg/mL) served as a positive control ([33]). After 36 h treatment, cell lysates were collected to test the CCV gene expression by the RT-qPCR, and the percentage inhibition of CCV infection by individual compound was calculated. According to the percentage inhibition results, we further detected the antiviral activity of kaempferol at maximum safe concentration by viral cytopathic effects (CPE) and western blot analysis. […]
For the western blot assay, firstly, cells were lysed with cell lysis buffer (Beyotime, China), and then the concentrations of protein samples collected from cell lysates protein were determined using the Enhanced BCA Protein Assay Kit (Beyotime, China). […] Finally, the signals were detected using an ECL kit (Beyotime, China) according to the manufacturer’s instructions.

O=c1c(O)c(-c2ccc(O)cc2)oc2cc(O)cc(O)c12 [Kaempferol]
down-regulation of viral internalization (CCV ORF 39/ORF 59, RT-qPCR) vs CCV control (CCV in CCO cells; 4 h at 28°C): more than 50% | production of intracellular virus (virus titer), penetration assay (CCV in CCO cells): significantly reduced | viral protein (CCV ORF 39, ORF 59) level, western blot ([1]; kaempferol 10 μg/mL to 15 μg/mL, 24 and 36 h): nearly undetectable | expression of viral proteins (CCV ORF 39, ORF 59), western blot ([1]; maximum safe concentration (47.53 μg/mL), 36 h post-infection): suppressed the expression of viral proteins
